Reference: patent publication US10238631B2, “Sesquiterpene derivatives and their use in inflammation or cancer treatment” (Academia Sinica, priority 2014, dated 2019)
Read-outs that look alike come from different tables or passages of the source.

What was measured:
[1] = tested on: TS/A (ER+, Her2−) murine mammary cancer cells; test: MTT cell viability assay, TS/A cells; format: cell-based; conditions: Mus musculus, 24 h, read-out: IC50 on cell viability, TS/A (ER+, Her2−)
Protocol: (§1) Normal or cancer cells (2×10^3 to 1×10^4 cells/well) were seeded in 96-well plate for overnight and treated with different compounds for 24 h to 72 h. Cells growth were determined by MTT-based colorimetric assays according to. Viability of the test cells treated with vehicle (0.5% DMSO) only was defined as 100% viable. Survival of cells after treatment with DETDs was calculated using the following formula: viable cell number (%)=OD570 (treated cell culture)/OD570 (vehicle control)×100.
(§2) Sixty DETDs were derived from parental compound […] and tested for anti-breast cancer cell activity.

[2] = tested on: MDA-MB-231 (ER−, PR−, Her2−) human breast cancer cells; test: MTT cell viability assay, MDA-MB-231 cells; format: cell-based; conditions: Homo sapiens, MDA-MB-231, 24 h, read-out: IC50 on cell viability, MDA-MB-231 (ER−, PR−, Her2−)
Protocol: as §1, §2

[3] = tested on: MCF-7 (ER+, Her2−) human breast cancer cells; test: MTT cell viability assay, MCF-7 cells; format: cell-based; conditions: MCF7, 24 h, read-out: IC50 on cell viability, MCF-7 (ER+, Her2−)
Protocol: as §1, §2

[4] = tested on: M10 normal mammary epithelial cells; test: MTT cell viability assay, M10 normal cells; format: cell-based, human; conditions: Homo sapiens, Epithelial cell, 24 h
Protocol: as §1, §2

[5] = tested on: B16-F10 (NRAS mutation); test: MTT cell viability assay, B16-F10 melanoma; format: cell-based; conditions: Mus musculus, B16-F10, 24 h, read-out: IC50 on cell viability, B16-F10 (NRAS mutation)
Protocol: as §1
(§3) Several genes are involved in melanoma development and pathology; specifically, mutation in V-raf murine sarcoma viral oncogene homolog B1 (B-RAF) occurs approximately 50-60% and in neuroblastoma RAS viral oncogene homolog (N-RAS) occurs about 30% of malignant melanomas. A spectrum of wild-type or mutated melanoma cell lines including B16-F10, MeWo, A375, A2058, HTB-68, and melanocyte were used to study anti-melanoma cell proliferation activity of parental phytocompound DET and newly synthesized DETDs.

[6] = tested on: MeWo (No NRAS or BRAF mutation); test: MTT cell viability assay, MeWo melanoma; format: cell-based, human; conditions: Homo sapiens, MeWo, 24 h
Protocol: as §1, §3

[7] = tested on: HTB-68 (NRAS mutation); test: MTT cell viability assay, HTB-68 melanoma; format: cell-based, human; conditions: Homo sapiens, 24 h
Protocol: as §1, §3

[8] = tested on: A2058 (BRAF mutation); test: MTT cell viability assay, A2058 melanoma; format: cell-based, human; conditions: Homo sapiens, A2058, 24 h
Protocol: as §1, §3

[9] = tested on: A375 (BRAF mutation); test: MTT cell viability assay, A375 melanoma; format: cell-based, human; conditions: Homo sapiens, A-375, 24 h, read-out: IC50 on cell viability, A375 (BRAF mutation)
Protocol: as §1, §3
To investigate whether or not DETD-35 show synergism with PLX4032 against A375 melanoma cells, we performed anti-proliferation assay using MTT reagent to obtain IC50 of each compound. […] The synergistic effect was quantified by combination index (CI) analysis as stated above.

[10] = tested on: Melanocyte (Normal cells); test: MTT cell viability assay, normal melanocytes; format: cell-based, human; conditions: Homo sapiens, Melanocyte, 24 h
Protocol: as §1, §3

[11] = tested on: RAW264.7 (normal macrophage); test: MTT cell viability assay, RAW264.7 macrophages; format: cell-based, mouse; conditions: Mus musculus, RAW264.7, 24 h
Protocol: as §1
(§4) Marcophages (2×10^5 cells/well in 96-well plate) were treated with compounds for 1 h, then incubated further for 24 h with or without the presence of […] LPS in the cultural medium. Nitrite levels in cell culture medium were determined by the Griess reaction method. In parallel to the Griess assays, macrophage cell viabilities were determined using the MTT based colorimetric assay.

[12] = tested on: LPS-induced nitric oxide (NO) production in RAW 264.7 cells; test: Nitric oxide production in LPS-stimulated macrophages (Griess); format: cell-based, mouse; conditions: Mus musculus; LPS-stimulated RAW264.7, nitrite 24 h after LPS
Protocol: as §4
LPS from the outer membrane of Gram-negative bacteria can induce mRNA or protein levels of inducible nitric oxide synthase (iNOS), which catalyzes oxidative deamination of L-arginine to produce nitric oxide (NO). Once NO is predominantly produced, it interacts with superoxide anion and generates highly reactive oxidants resulting in cellular inflammation, DNA, protein and tissue damages, carcinogenesis, and antiapoptosis. We used in vitro LPS stimulated inflammation in RAW264.7 cell system to evaluate the effect of DET and its derivatives DETDs on NO production by determination of nitrite level (equivalent to NO level) in culture medium 24 h after LPS treatment.

Compound	IC50 [1] [µM]	IC50 [2] [µM]	IC50 [3] [µM]	IC50 [4] [µM]	IC50 ([5]; 24 h) [µM]	IC50 [6] [µM]	IC50 [7] [µM]	IC50 [8] [µM]	IC50 ([9]; 24 h, MTT) [µM]	IC50 [10] [µM]	IC50 [11] [µM]	IC50 [12] [µM]	IC50 [5] [µM]	IC50 [9] [µM]
C=C1C(=O)OC2CC3=C[C@@H](C/C(C)=C/C(OC(=O)c4ccccc4)[C@H]12)OC3=O (stereo partly drawn) [DETD-31]	2	4.5	5.9	> 7.5	2.9	> 10	> 10	> 10	4.3	> 10	> 10	3.2	–	–
C=C1C(=O)OC2CC3=C[C@@H](C/C(C)=C/C(OC(=O)C(CC)CC)[C@H]12)OC3=O (stereo partly drawn) [DETD-16]	2.1	7	3.9	> 7.5	> 10	> 10	> 10	> 10	> 10	> 10	> 10	3.2	–	–
C=C1C(=O)OC2CC3=C[C@@H](C/C(C)=C/C(OC(=O)CC(C)(CC)OC(C)=O)[C@H]12)OC3=O (stereo partly drawn) [DETD-11]	2.9	> 7.5	4.2	> 7.5	–	> 10	> 10	> 10	–	> 10	> 10	2.3	> 10	> 10
C=C1C(=O)OC2CC3=C[C@@H](C/C(C)=C/[C@@H](OC(=O)[C@H](OC)c4ccc5ccccc5c4)[C@H]12)OC3=O (stereo partly drawn) [DETD-57]	> 7.5	> 15	> 7.5	> 7.5	8.1	> 10	8	8.3	4.2	> 10	> 10	> 10	–	–
C=C1C(=O)OC2CC3=C[C@@H](C/C(C)=C/C(OC(=O)C(C)CCCC)[C@H]12)OC3=O (stereo partly drawn) [DETD-22]	1.8	4.3	2.5	4.7	6.8	> 10	> 10	> 10	> 10	> 10	> 10	3.5	–	–
C=C1C(=O)OC2CC3=C[C@@H](C/C(C)=C/C(OC(=O)/C=C/c4ccc(OC)c(OC)c4)[C@H]12)OC3=O (stereo partly drawn) [DETD-49]	> 7.5	9.5	> 7.5	> 7.5	> 10	> 10	> 10	> 10	4.9	> 10	> 10	3.4	–	–
C=C1C(=O)OC2CC3=C[C@@H](C/C(C)=C/C(OC(=O)C(C)CC)[C@H]12)OC3=O (stereo partly drawn) [DETD-13]	1.9	7.5	3.7	> 7.5	7.1	> 10	> 10	> 10	> 10	> 10	> 10	2	–	–
C=C1C(=O)OC2CC3=C[C@@H](C/C(C)=C/C(OC(=O)CC(O)(C(C)C)C(C)C)[C@H]12)OC3=O (stereo partly drawn) [DETD-23]	2.4	5.9	2.5	> 7.5	–	> 10	> 10	> 10	–	> 10	> 10	3.8	8.6	> 10
C=C1C(=O)OC2CC3=C[C@@H](C/C(C)=C/C(OC(=O)Cc4ccc5cc(OC)ccc5c4)[C@H]12)OC3=O (stereo partly drawn) [DETD-46]	3.8	7.3	> 7.5	> 7.5	5.4	6.3	4.5	5	2.6	> 10	> 10	3.1	–	–
C=C1C(=O)OC2CC3=C[C@@H](C/C(C)=C/C(OC(=O)CC(C)CC)[C@H]12)OC3=O (stereo partly drawn) [DETD-18]	3.3	5.5	2.6	> 7.5	8.4	> 10	> 10	> 10	> 10	> 10	> 10	3.4	–	–
C=C(C)C(=O)OC1/C=C(\C)C[C@@H]2C=C(CC3OC(=O)C(=C)[C@@H]13)C(=O)O2 (stereo partly drawn) [DETD-4]	1.8	6.2	3.4	> 7.5	4.5	> 10	> 10	> 10	> 10	> 10	> 10	2.2	–	–
C=C1C(=O)OC2CC3=C[C@@H](C/C(C)=C/C(OC(=O)/C=C/c4ccco4)[C@H]12)OC3=O (stereo partly drawn) [DETD-29]	2.2	4.9	4.1	> 7.5	6.7	> 10	> 10	> 10	> 10	> 10	> 10	1.6	–	–
C=C1C(=O)OC2CC3=C[C@@H](C/C(C)=C/C(OC(=O)C=C(C)CCC=C(C)C)[C@H]12)OC3=O (stereo partly drawn) [DETD-14]	> 7.5	> 7.5	> 7.5	> 7.5	> 10	> 10	> 10	> 10	> 10	> 10	> 10	2.2	–	–
C=C1C(=O)OC2CC3=C[C@@H](C/C(C)=C/C(OC(=O)C4CC4)[C@H]12)OC3=O (stereo partly drawn) [DETD-36]	2.4	8.7	7.1	> 7.5	9.4	> 10	> 10	> 10	9.2	> 10	> 10	1.8	–	–
C=C1C(=O)OC2CC3=C[C@@H](C/C(C)=C/C(OC(=O)C(Cl)Cl)[C@H]12)OC3=O (stereo partly drawn) [DETD-9]	> 7.5	> 7.5	> 7.5	> 7.5	> 10	> 10	> 10	> 10	> 10	> 10	> 10	> 10	–	–
C=C1C(=O)OC2CC3=C[C@@H](C/C(C)=C/C(OC(=O)/C=C/c4cccs4)[C@H]12)OC3=O (stereo partly drawn) [DETD-42]	2.7	6	4.5	> 7.5	–	> 10	> 10	> 10	–	> 10	> 10	2.9	5.5	> 10
C=C(C)C(=O)O[C@H]1CC2=C[C@@H](C/C(C)=C/[C@H]3OC(=O)[C@@H](CN(C)C)[C@H]13)OC2=O [DETD-1]	6.2	> 7.5	> 7.5	> 7.5	> 10	> 10	> 10	> 10	> 10	> 10	> 10	5	–	–
